Data from ChEMBL document CHEMBL1137791, “Cell division cycle 7 kinase inhibitors: 1H-pyrrolo[2,3-b]pyridines, synthesis and structure-activity relationships” (J Med Chem, 2009).

Experiments:
[1] = biological target: Cell division cycle 7-related protein kinase (Homo sapiens, UniProt O00311); assay: Inhibition of Cdc7-mediated phosphorylation of Mcm2
A2780 = assay: Antiproliferative activity against human A2780 cells after 72 hrs by firefly luciferase assay; type: functional, cell-based; settings: A2780, 72 h
CDK9/cyclin T1 = CDK9/cyclin T1 (Homo sapiens, UniProt P50750); assay: Inhibition of Cdk9/cyclinT; type: protein-complex assay
[2] = biological target: Cyclin-dependent kinase 2 (Homo sapiens, UniProt P24941); assay: Inhibition of Cdk2/cyclinA
[3] = biological target: cAMP-dependent protein kinase catalytic subunit alpha (Homo sapiens, UniProt P17612); assay: Inhibition of PKAalpha

CDK9/cyclin T1, sequence (O60563 whole entry): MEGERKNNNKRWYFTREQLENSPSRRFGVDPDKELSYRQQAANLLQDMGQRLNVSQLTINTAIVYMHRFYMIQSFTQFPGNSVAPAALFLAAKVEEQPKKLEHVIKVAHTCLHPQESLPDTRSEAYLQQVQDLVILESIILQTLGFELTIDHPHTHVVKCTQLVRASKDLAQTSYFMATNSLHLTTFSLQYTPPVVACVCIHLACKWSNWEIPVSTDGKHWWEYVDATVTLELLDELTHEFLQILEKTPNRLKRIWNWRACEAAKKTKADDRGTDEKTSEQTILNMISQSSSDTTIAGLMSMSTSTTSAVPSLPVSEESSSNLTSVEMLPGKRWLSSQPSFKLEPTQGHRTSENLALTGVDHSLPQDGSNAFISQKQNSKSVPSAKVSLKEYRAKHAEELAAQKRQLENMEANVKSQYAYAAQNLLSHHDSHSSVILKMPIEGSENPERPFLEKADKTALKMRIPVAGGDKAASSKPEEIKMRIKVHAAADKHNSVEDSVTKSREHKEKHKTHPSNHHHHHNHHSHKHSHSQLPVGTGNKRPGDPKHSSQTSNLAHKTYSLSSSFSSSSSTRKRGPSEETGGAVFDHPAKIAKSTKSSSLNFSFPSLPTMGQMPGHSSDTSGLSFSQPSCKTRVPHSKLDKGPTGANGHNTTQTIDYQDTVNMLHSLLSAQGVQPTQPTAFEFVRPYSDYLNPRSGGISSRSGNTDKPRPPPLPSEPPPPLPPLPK
CDK9/cyclin T1, sequence (P50750 whole entry): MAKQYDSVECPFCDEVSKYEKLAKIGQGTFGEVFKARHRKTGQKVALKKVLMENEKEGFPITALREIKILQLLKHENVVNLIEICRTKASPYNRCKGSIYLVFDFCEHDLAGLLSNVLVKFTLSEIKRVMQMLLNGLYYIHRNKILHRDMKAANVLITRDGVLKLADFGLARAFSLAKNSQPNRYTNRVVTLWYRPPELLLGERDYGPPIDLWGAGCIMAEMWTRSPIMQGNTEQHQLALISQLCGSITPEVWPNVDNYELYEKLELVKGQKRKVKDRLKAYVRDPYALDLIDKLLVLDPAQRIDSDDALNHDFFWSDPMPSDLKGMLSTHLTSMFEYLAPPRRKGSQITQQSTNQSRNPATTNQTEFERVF
Cell division cycle 7-related protein kinase, sequence (O00311 whole entry): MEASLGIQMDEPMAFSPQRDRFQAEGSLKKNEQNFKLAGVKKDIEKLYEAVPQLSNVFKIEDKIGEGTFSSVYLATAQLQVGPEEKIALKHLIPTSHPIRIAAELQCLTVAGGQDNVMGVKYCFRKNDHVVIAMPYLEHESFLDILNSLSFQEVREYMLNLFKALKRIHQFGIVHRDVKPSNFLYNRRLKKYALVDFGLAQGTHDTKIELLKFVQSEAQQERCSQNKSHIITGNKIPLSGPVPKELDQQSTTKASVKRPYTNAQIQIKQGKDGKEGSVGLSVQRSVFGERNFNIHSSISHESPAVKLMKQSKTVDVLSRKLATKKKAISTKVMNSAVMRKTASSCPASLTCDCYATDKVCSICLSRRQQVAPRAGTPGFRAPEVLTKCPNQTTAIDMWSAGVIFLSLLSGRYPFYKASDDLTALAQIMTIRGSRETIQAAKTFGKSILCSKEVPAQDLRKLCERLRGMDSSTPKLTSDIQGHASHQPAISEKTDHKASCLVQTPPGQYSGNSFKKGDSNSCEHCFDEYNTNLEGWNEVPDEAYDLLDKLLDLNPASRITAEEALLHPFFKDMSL

Structure (SMILES) | IC50 [1] [nM] | other results
O=C1NC(NCc2ccccc2)=N/C1=C\c1c[nH]c2ncc([N+](=O)[O-])cc12 | 130 | 
Cc1cccc(C2=N/C(=C\c3c[nH]c4ncccc34)C(=O)N2)c1 | 30 | 
O=C1NC(NCC2CCCO2)=N/C1=C\c1c[nH]c2ncccc12 (stereo not given) | 21 | 
CC1CCN(C2=N/C(=C\c3c[nH]c4ncccc34)C(=O)N2)CC1 | 105 | 
O=C1NC(c2ccccc2)=N/C1=C\c1c[nH]c2ccccc12 | > 10000 | 
C/C(=C1/N=C(NCc2ccccc2)NC1=O)c1c[nH]c2ncccc12 | > 10000 | 
O=C1NC(SCc2ccccc2)=N/C1=C\c1c[nH]c2ncccc12 |  | IC50 (CDK9/cyclin T1): 6100 nM
O=C1NC(N2CCCCC2)=N/C1=C\c1c[nH]c2ncccc12 | 25 | 
O=C1N=C(NCc2ccco2)S/C1=C\c1c[nH]c2ncccc12 | 4 | IC50 (A2780): 1200 nM
O=C1NC(NCCc2ccccc2)=N/C1=C\c1c[nH]c2ncccc12 | 18 | 
CCNC1=N/C(=C\c2c[nH]c3ncccc23)C(=O)N1 | 45 | 
O=C1NC(NCCO)=N/C1=C\c1c[nH]c2ncccc12 | 37 | 
O=C1NC(c2cccnc2)=N/C1=C\c1c[nH]c2ncccc12 | 60 | 
O=C1NC(NCc2ccc(Cl)cc2)=N/C1=C\c1c[nH]c2ncccc12 | 86 | 
O=C1NC(NCc2ccccc2)=N/C1=C/c1c[nH]c2ncc([N+](=O)[O-])cc12 | > 10000 | 
CC(C)(C)CCNC1=N/C(=C\c2c[nH]c3ncccc23)C(=O)N1 | 24 | 
CC(C)NC1=N/C(=C\c2c[nH]c3ncccc23)C(=O)N1 | 13 | IC50 (A2780): 8800 nM
CC1CCC(NC2=N/C(=C\c3c[nH]c4ncccc34)C(=O)N2)CC1 (stereo not given) | 13 | 
Cc1ccc(CNC2=N/C(=C\c3c[nH]c4ncccc34)C(=O)N2)cc1 | 162 | 
C[C@H](NC1=NC(=O)/C(=C/c2c[nH]c3ncccc23)S1)c1ccccc1 | 26 | IC50 (A2780): 42 nM
O=C1NC(NCc2cccc(Cl)c2)=N/C1=C\c1c[nH]c2ncccc12 | 39 | 
O=C1NC(NCC2CCCCC2)=N/C1=C\c1c[nH]c2ncccc12 | 64 | 

Further lines, with some results ahead:

IC50 [1] [nM] | Structure (SMILES) | other results
116 | CC(=O)Nc1cnc2[nH]cc(/C=C3\N=C(NCc4ccccc4)NC3=O)c2c1 | 
10 | CC(C)NC1=NC(=O)/C(=C/c2c[nH]c3ncccc23)S1 | IC50 (A2780): 1000 nM
9 | O=C1N=C(NCc2ccccc2)S/C1=C\c1c[nH]c2ncccc12 | IC50 (CDK9/cyclin T1): 15 nM; IC50 [2]: < 50 nM; IC50 (A2780): 320 nM; IC50 [3]: < 50 nM
238 | Nc1cnc2[nH]cc(/C=C3\N=C(NCc4ccccc4)NC3=O)c2c1 | 
47 | O=C1NC(N2CCOCC2)=N/C1=C\c1c[nH]c2ncccc12 | 
127 | O=C1NC(NCc2ccc(Br)cc2)=N/C1=C\c1c[nH]c2ncccc12 | 
33 | O=C1NC(NC2CC2)=N/C1=C\c1c[nH]c2ncccc12 | 
247 | CCCCCCCNC1=N/C(=C\c2c[nH]c3ncccc23)C(=O)N1 | 
20 | O=C1NC(NCc2ccccc2)=N/C1=C\c1c[nH]c2ncccc12 | IC50 (CDK9/cyclin T1): 95 nM; IC50 (A2780): 1200 nM
50 | O=C1NC(c2ccccc2)=N/C1=C\c1c[nH]c2ncccc12 | 
128 | O=C1NC(NCC23CC4CC(CC(C4)C2)C3)=N/C1=C\c1c[nH]c2ncccc12 | 
21 | O=C1NC(NC2CCCCC2)=N/C1=C\c1c[nH]c2ncccc12 | 
66 | CC1CN(C2=N/C(=C\c3c[nH]c4ncccc34)C(=O)N2)CCO1 (stereo not given) | 
207 | CC(C)(C)C1CCC(NC2=N/C(=C\c3c[nH]c4ncccc34)C(=O)N2)CC1 (stereo not given) | 
21 | C[C@H](NC1=N/C(=C\c2c[nH]c3ncccc23)C(=O)N1)c1ccccc1 | IC50 (A2780): 380 nM
15 | O=C1NC(NCc2ccco2)=N/C1=C\c1c[nH]c2ncccc12 | IC50 (A2780): 4000 nM
55 | O=C1NC(NCc2cccc(Br)c2)=N/C1=C\c1c[nH]c2ncccc12 | 
47 | Cc1ccc(C2=N/C(=C\c3c[nH]c4ncccc34)C(=O)N2)cc1 | 
18 | O=C1NC(NCc2cccs2)=N/C1=C\c1c[nH]c2ncccc12 | 
35 | CCCCCNC1=N/C(=C\c2c[nH]c3ncccc23)C(=O)N1 | 
50 | Cc1cccc(CNC2=N/C(=C\c3c[nH]c4ncccc34)C(=O)N2)c1 | 
